Test results as given in patent publication US8530465B2, “1, 2-disubstituted amido-anthraquinone derivatives, preparation method and application thereof” (National Defense Medical Center, priority 2010, dated 2013).

What was measured:
DU145 = experiment: NCI drug screen, DU145; type: cell-based, human; conditions: DU145 (Prostate Cancer); 1.00E−5 Molar
Experimental: (§1) In brief, cellular protein levels were determined after 48 hours of drug exposure by sulforhodamine B colorimetry. Through the use of a time 0 cell control, the cell growth can be determined for each cell line thus allowing calculations of the 50% growth inhibitory concentration (GI50), the total growth inhibition (TGI), and the 50% lethal concentration (LC50). Comparison to plates not exposed to drug permits determination of concentration and times of exposure conferring 50% net growth inhibition (GI50), TGI, and 50% cell kill (LC50).
(§2) The screening system in United State National Cancer Institute (NCI) is consisted of 60 kinds of different human cancer cells, which can be used to assay the growth-inhibiting ability or cell toxicity of a compound against various cancer and tumor at a certain concentration.

SK-OV-3 = experiment: NCI drug screen, SK-OV-3; type: cell-based, human; conditions: SK-OV-3 (Ovarian Cancer); 1.00E−5 Molar
Experimental: as §1, §2

NCI-H460 = experiment: NCI drug screen, NCI-H460; type: cell-based, human; conditions: NCI-H460 (Non-Small Cell Lung Cancer); 1.00E−5 Molar
Experimental: as §1, §2

HOP-92 = experiment: NCI drug screen, HOP-92; type: cell-based, human; conditions: HOP-92 (Non-Small Cell Lung Cancer); 1.00E−5 Molar
Experimental: as §1, §2

NCI drug screen, A489 = type: cell-based, human; conditions: A489 (Renal Cancer); 1.00E−5 Molar
Experimental: as §1, §2

HCC-2998 = experiment: NCI drug screen, HCC-2998; type: cell-based, human; conditions: HCC-2998 (Colon Cancer); 1.00E−5 Molar
Experimental: as §1, §2

[1] = MTT assay, PhTERT-SEAP (H1299); type: cell-based, human; conditions: human, H1299 cells carrying the PhTERT-SEAP reporter, PhTERT-SEAP (H1299); for viability at 1 μM: Conc. 1 μM, read-out: Relative MTT viability (%); for viability at 10 μM: Conc. 10 μM; for viability at 10 μM / viability at 100 μM: read-out: Relative MTT viability (%) (converted); for viability at 100 μM: Conc. 100 μM
Outline: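 Cultured cells received MTT for 4 h at 37 °C, then lysis buffer overnight at 37 °C. Optical density was read at 550 nm.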

OVCAR-3 = experiment: NCI drug screen, OVCAR-3; type: cell-based, human; conditions: OVCAR-3 (Ovarian Cancer); 1.00E−5 Molar
Experimental: as §1, §2

MDA-MB-231/ATCC = experiment: NCI drug screen, MDA-MB-231/ATCC; type: cell-based, human; conditions: MDA-MB-231/ATCC (Breast Cancer); 1.00E−5 Molar
Experimental: as §1, §2

786-0 = experiment: NCI drug screen, 786-0; type: cell-based, human; conditions: 786-0 (Renal Cancer); 1.00E−5 Molar
Experimental: as §1, §2

UO-31 = experiment: NCI drug screen, UO-31; type: cell-based, human; conditions: UO-31 (Renal Cancer); 1.00E−5 Molar
Experimental: as §1, §2

COLO 205 = experiment: NCI drug screen, COLO 205; type: cell-based, human; conditions: COLO 205 (Colon Cancer); 1.00E−5 Molar
Experimental: as §1, §2

[2] = tested on: 60 kinds of different human cancer cells; experiment: NCI in vitro 60-cell Drug Screen, whole panel; type: cell-based; conditions: 1.00E−5 Molar; for Growth Percent, Mean: mean over tested cell lines; for growth-inhibiting effect against cancer cells, by cancer type: NCI's screen
Experimental: as §1
From the data analysis it follows that approximately 95% of the actives (potent anticancer drugs) from the 60 cell line screen can be identified. By these criteria, five compounds (each with its certification number, refer to FIG. 4) of the invention were reported that having anticancer activity.
as §2

KM12 = experiment: NCI drug screen, KM12; type: cell-based, human; conditions: KM12 (Colon Cancer); 1.00E−5 Molar
Experimental: as §1, §2

SR = experiment: NCI drug screen, SR; type: cell-based, human; conditions: SR (Leukemia); 1.00E−5 Molar
Experimental: as §1, §2

SF-268 = experiment: NCI drug screen, SF-268; type: cell-based, human; conditions: SF-268 (CNS Cancer); 1.00E−5 Molar
Experimental: as §1, §2

BT-549 = experiment: NCI drug screen, BT-549; type: cell-based, human; conditions: BT-549 (Breast Cancer); 1.00E−5 Molar
Experimental: as §1, §2

HCT-15 = experiment: NCI drug screen, HCT-15; type: cell-based, human; conditions: HCT-15 (Colon Cancer); 1.00E−5 Molar
Experimental: as §1, §2

OVCAR-4 = experiment: NCI drug screen, OVCAR-4; type: cell-based, human; conditions: OVCAR-4 (Ovarian Cancer); 1.00E−5 Molar
Experimental: as §1, §2

OVCAR-5 = experiment: NCI drug screen, OVCAR-5; type: cell-based, human; conditions: OVCAR-5 (Ovarian Cancer); 1.00E−5 Molar
Experimental: as §1, §2

NCI-H322M = experiment: NCI drug screen, NCI-H322M; type: cell-based, human; conditions: NCI-H322M (Non-Small Cell Lung Cancer); 1.00E−5 Molar
Experimental: as §1, §2

SN12C = experiment: NCI drug screen, SN12C; type: cell-based, human; conditions: SN12C (Renal Cancer); 1.00E−5 Molar
Experimental: as §1, §2

A549/ATCC = experiment: NCI drug screen, A549/ATCC; type: cell-based, human; conditions: A549/ATCC (Non-Small Cell Lung Cancer); 1.00E−5 Molar
Experimental: as §1, §2

HS 578-T = experiment: NCI drug screen, HS 578-T; type: cell-based, human; conditions: HS 578-T (Breast Cancer); 1.00E−5 Molar
Experimental: as §1, §2

HL-60(TB) = experiment: NCI drug screen, HL-60(TB); type: cell-based, human; conditions: HL-60(TB) (Leukemia); 1.00E−5 Molar
Experimental: as §1, §2

PC-3 = experiment: NCI drug screen, PC-3; type: cell-based, human; conditions: PC-3 (Prostate Cancer); 1.00E−5 Molar
Experimental: as §1, §2

OVCAR-8 = experiment: NCI drug screen, OVCAR-8; type: cell-based, human; conditions: OVCAR-8 (Ovarian Cancer); 1.00E−5 Molar
Experimental: as §1, §2

UACC-257 = experiment: NCI drug screen, UACC-257; type: cell-based, human; conditions: UACC-257 (Melanoma); 1.00E−5 Molar
Experimental: as §1, §2

MDA-MB-435 = experiment: NCI drug screen, MDA-MB-435; type: cell-based, human; conditions: MDA-MB-435 (Melanoma); 1.00E−5 Molar
Experimental: as §1, §2

Row | SMILES | Growth Percent (DU145) | Growth Percent (NCI-H460) | Growth Percent (HOP-92) | Growth Percent (NCI drug screen, A489) | viability at 1 μM [1] | viability at 10 μM [1] | Growth Percent (OVCAR-3) | Growth Percent (MDA-MB-231/ATCC) | Growth Percent (786-0) | Growth Percent (UO-31) | Growth Percent, Mean [2] | Growth Percent (KM12) | Growth Percent (SR) | Growth Percent (SF-268) | Growth Percent (BT-549) | Growth Percent (HCT-15) | Growth Percent (OVCAR-4) | Growth Percent (OVCAR-5) | Growth Percent (NCI-H322M) | Growth Percent (SN12C) | other results
1 | Cc1ccc(C(=O)Nc2ccc3c(c2NC(=O)c2ccc(C)cc2)C(=O)c2ccccc2C3=O)cc1 [CC-04, 1,2-bis-(4-methylbenzamido)-anthraquinone] | 95.93% | 88.62% | 91.21% | 124.08% | 100 ± 4.4% | 117% | 97.90% | 93.29% | 116.17% | 66.54% | 96.19% | 94.21% | 87.69% | 98.91% | 95.39% | 102.44% | 104.32% | 110.18% | 97.74% | 98.59% | Growth Percent (SK-OV-3): 109.62%; Growth Percent (HCC-2998): 84.68%; viability at 100 μM [1]: 62%; Growth Percent (COLO 205): 108.57%; Growth Percent (A549/ATCC): 90.46%; Growth Percent (HS 578-T): 105.96%; Growth Percent (HL-60(TB)): 73.11%; Growth Percent (PC-3): 82.91%; Growth Percent (OVCAR-8): 85.43%; Growth Percent (UACC-257): 98.46%
2 | O=C(CCl)Nc1ccc2c(c1NC(=O)Cc1ccccc1)C(=O)c1ccccc1C2=O [CC-23, 1-[2-(phenyl)acetylamino]-2-(chloroacetamido)-anthraquinone] | 85.83% | 104.50% | 73.63% | 91.79% | 82 ± 1.79% | 5.94% | 86.38% | 82.04% | 97.26% | 58.19% | 73.78% | 80.59% | −31.25% | 80.14% | 79.78% | 68.55% | 80.40% | 119.04% | 104.38% | 79.93% | Growth Percent (HCC-2998): 94.74%; viability at 100 μM [1]: 3.98%; growth-inhibiting effect against cancer cells, by cancer type [2]: could inhibit the cancer cell growth of leukemia and melanoma; Growth Percent (MDA-MB-435): 80.40%; Growth Percent (HS 578-T): 66.65%; Growth Percent (HL-60(TB)): 41.36%
3 | Cc1ccc(C(=O)Nc2c(NC(=O)CCl)ccc3c2C(=O)c2ccccc2C3=O)cc1 [CC-12, 1-(4-methylbenzamido)-2-(chloroacetamido)-anthraquinone] | −97.56% | 95.65% | −68.77% | 123.78% | 104 ± 7.83% | 2.77% | −92.86% | 24.67% | 11.30% | 42.91% | −1.96% | −19.53% | −19.84% | 14.63% | 28.19% | −50.22% | 34.52% | 109.55% | 95.05% | −81.02% | Growth Percent (SK-OV-3): 106.24%; Growth Percent (COLO 205): −53.43%; growth-inhibiting effect against cancer cells, by cancer type [2]: exhibited growth-inhibiting effect against cancer cells such as leukemia, non-small cell lung cancer, colon cancer, central nervous system (CNS) cancer, melanoma, ovarian cancer, renal cancer, prostate cancer, breast cancer; Growth Percent (MDA-MB-435): 4.82%; Growth Percent (A549/ATCC): −81.71%; Growth Percent (HL-60(TB)): −46.88%; Growth Percent (PC-3): 6.81%; Growth Percent (OVCAR-8): 8.72%
